For 27 compounds, IC50 results are on record in US10953012B2, “Heterocyclic compounds for the inhibition of pask” (BioEnergenix LLC, priority 2011, dated 2021).

PASK, sequence (Q96RG2 999-1251): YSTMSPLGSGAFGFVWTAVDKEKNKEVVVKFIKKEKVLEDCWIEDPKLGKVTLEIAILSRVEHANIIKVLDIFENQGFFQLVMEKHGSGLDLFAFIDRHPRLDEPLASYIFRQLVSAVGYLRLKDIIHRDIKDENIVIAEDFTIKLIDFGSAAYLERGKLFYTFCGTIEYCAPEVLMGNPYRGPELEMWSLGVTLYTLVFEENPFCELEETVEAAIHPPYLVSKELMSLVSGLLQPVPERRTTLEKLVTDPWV

The test concerns the target PASK (Homo sapiens (Human), UniProt Q96RG2). As to the kind of experiment: PAS Kinase FRET Assay. The test is classed as biochemical. The following applies: TR-FRET assay; read-out: IC50 Kinase Domain. An excerpt:
The aim of the FRET assay is to determine the inhibition potential of test compounds on targeted kinase. This assay platform provides a homogenous screening method for measuring kinase activity by quantitating the amount of phospho-substrate in solution following a kinase reaction.
In the presence of kinase and ATP, the Ulight-peptide is phosphorylated and captured by an anti-phospho-substrate antibody, which brings the Eu chelate donor and Ulight acceptor dyes into close proximity. Upon excitation at 340 nm, the Eu chelate transfers its energy to the Ulight dye, resulting in a fluorescent light emission at 665 nm
Titration of kinase at 1 mM ATP was achieved via the following protocol. After making serial three-fold dilutions of PASK (Invitrogen) in reaction buffer across the plate; 5 μl of kinase dilution and 5 μl substrate/ATP mix were added to the wells of the white Optiplate-384 (PerkinElmer). The contents of the plate were and incubated at RT for 1 h. The reaction was stopped by adding 5 μl of stop solution to each test well followed by mixing and incubation at RT for 10 minutes. 5 μl of detection mix (detection antibody diluted in detection buffer) was added; the contents of the plate were mixed and then incubated in the dark for 1 hour at RT. The signal was recorded at TR-FRET mode (665 nm/615 nm). The results were graphed to calculate the EC50.
Titration of ATP at the EC50 concentration of kinase to determine ATP Km, app. was performed using the following method. After making serial dilutions of ATP (Invitrogen), 5 μl of ATP dilution and 5 μl substrate/kinase mix were added to the wells of the white Optiplate-384 (PerkinElmer). The contents of the plate were and incubated at RT for 1 h. The reaction was stopped by adding 5 μl of stop solution to each test well followed by mixing and incubation at RT for 10 minutes. 5 μl of detection mix (detection antibody diluted in detection buffer) was added; the contents of the plate were mixed and then incubated in the dark for 1 hour at RT. The signal was recorded at TR-FRET mode (665 nm/615 nm). The results were graphed to calculate the EC50 as the ATP Km, app.
Compound screening was done via the following method. 10 mM stock solution of test compound in DMSO was prepared by dissolving test compound in DMSO at RT for 1 hour, and then sonicating at 100% output for 8 minutes. If compound is not soluble under this condition, it was diluted to 3 mM. Kinase reaction buffer was prepared containing 10 mM MgCl2, 50 mM HEPES, 1 mM EGTA, 0.01% TWEEN-20, 2 mM DTT. Serial dilutions of the test compounds were prepared at 4×final assay concentrations using Freedom EVO200® dispensing system as follows: 12×10^−5 M, 4×10^−5 M, 1.33×10^−5 M, 4.44×10^−6 M, 1.48×10^−6 M, 4.92×10^−7 M, 1.65×10^−7 M, […], 1.82×10^−8M, 6.09×10^−9, 2.03×10^−9 M. Test compounds (2.5 μl at 4× the final assay concentration) was added to wells using Freedom EVO200® dispensing system. As a positive control, 2.5 μl of positive compound was added to assay wells, and 2.5 μl of DMSO to assay wells as vehicle control. Kinase solution was prepared in reaction buffer at 2×final assay concentration. Kinase solution (5 μl) was added to each well of the assay plate. The substrate and ATP solution was prepared in kinase reaction buffer at 4×final assay concentration. The kinase reaction was started by adding 2.5 μl of substrate+ATP mix solution to each well of the assay plate. The plate is mixed on a plate shaker; then covered and allowed to react for 2 hours in the dark at 25° C. without shaking. The reaction was stopped by adding 5 μl of stop solution to each test well followed by mixing and incubation at RT for 10 minutes in the dark. 5 μl of detection mix (detection antibody diluted in detection buffer) was added; the contents of the plate were mixed and then incubated in the dark for 1 hour at RT. The signal was recorded at TR-FRET mode (665 nm/615 nm).
For orientation: Time-resolved FRET reads energy transfer from a long-lived donor to a nearby acceptor.
For orientation: IC50 means the midpoint of a concentration-inhibition curve. On to `CCC(=O)Nc1nn2c(=O)cc(-c3ccc4nn[nH]c4c3)[nH]c2c1-c1ccccn1` [Example 203, N-(5-(1H-Benzo[d][1,2,3]triazol-6-yl)-7-oxo-3-(pyridin-2-yl)-4,7-dihydropyrazolo[1,5-a]pyrimidin-2-yl)propionamide], for which the IC50 was ≤ 10 µM. Under `CCn1ncc2cc(-c3cc(=O)n4nc(NC(C)=O)c(-c5ccccn5)c4[nH]3)ccc21` [Example 204, N-(5-(1-Ethyl-1H-indazol-5-yl)-7-oxo-3-(pyridin-2-yl)-4,7-dihydropyrazolo[1,5-a]pyrimidin-2-yl)acetamide] stands ≤ 10 µM.

Turning to `CCc1nn2c(=O)cc(-c3ccc4[nH]nnc4c3)[nH]c2c1-c1ccccc1` [Example 206, 5-(1H-Benzo[d][1,2,3]triazol-5-yl)-2-ethyl-3-phenylpyrazolo[1,5-a]pyrimidin-7(4H)-one], the IC50 was ≤ 10 µM. For `O=c1cc(-c2ccc3[nH]nnc3c2)[nH]c2c(Cc3ccccc3)cnn12` [Example 207, 5-(1H-Benzo[d][1,2,3]triazol-5-yl)-3-benzylpyrazolo[1,5-a]pyrimidin-7(4H)-one] the value was ≤ 10 µM.

On to `Nc1nn2c(=O)cc(-c3ccc4[nH]nnc4c3)[nH]c2c1Cc1ccccc1` [Example 208, 2-Amino-5-(1H-benzo[d][1,2,3]triazol-5-yl)-3-benzylpyrazolo[1,5-a]pyrimidin-7(4H)-one], for which the IC50 was ≤ 10 µM.

In the case of `O=c1cc(-c2ccc3[nH]nnc3c2)[nH]c2c(Cc3ccccc3)c(O)nn12` [Example 209, 5-(1H-Benzo[d][1,2,3]triazol-5-yl)-3-benzyl-2-hydroxypyrazolo[1,5-a]pyrimidin-7(4H)-one], the IC50 was ≤ 10 µM. Under `O=c1cc(-c2ccc3c(c2)OCO3)[nH]c2c(Cc3ccccn3)cnn12` [Example 211, 5-(Benzo[d][1,3]dioxol-5-yl)-3-(pyridin-2-ylmethyl)-pyrazolo[1,5-a]pyrimidin-7(4H)-one] stands ≤ 10 µM; under `Cc1nn2c(=O)cc(-c3ccc4[nH]nnc4c3)[nH]c2c1-c1ccccc1` [Example 212, 5-(1H-Benzo[d][1,2,3]triazol-5-yl)-2-methyl-3-phenylpyrazolo[1,5-a]pyrimidin-7(4H)-one], ≤ 10 µM. Under `O=c1cc(-c2ccc3[nH]nnc3c2)[nH]c2c(-c3ccccc3)c(O)nn12` [Example 215, 5-(1H-Benzo[d][1,2,3]triazol-5-yl)-2-hydroxy-3-phenylpyrazolo[1,5-a]pyrimidin-7(4H)-one] stands ≤ 10 µM; under `Cc1nn2c(=O)cc(-c3ccc4[nH]nnc4c3)[nH]c2c1-c1ccc(Cl)cc1` [Example 216, 5-(1H-Benzo[d][1,2,3]triazol-5-yl)-3-(4-chlorophenyl)-2-methylpyrazolo[1,5-a]pyrimidin-7(4H)-one], ≤ 10 µM. For `Cc1nn2c(=O)cc(-c3ccc4[nH]ncc4c3)[nH]c2c1-c1ccccn1` [Example 219, 5-(1H-Indazol-5-yl)-2-methyl-3-(pyridin-2-yl)pyrazolo[1,5-a]pyrimidin-7(4H)-one] the value was ≤ 10 µM; for `Cc1nn2c(=O)cc(-c3ccc4[nH]ncc4c3)[nH]c2c1-c1ccc(Cl)cc1` [Example 220, 3-(4-Chlorophenyl)-5-(1H-indazol-5-yl)-2-methylpyrazolo[1,5-a]pyrimidin-7(4H)-one], ≤ 10 µM; for `Nc1nn2c(=O)cc(-c3ccc4[nH]ncc4c3)[nH]c2c1-c1ccc(Cl)cc1` [Example 221, 2-Amino-3-(4-chlorophenyl)-5-(1H-indazol-5-yl)pyrazolo[1,5-a]pyrimidin-7(4H)-one], ≤ 10 µM. With `O=c1cc(-c2ccc3[nH]ncc3c2)[nH]c2c(-c3ccc(Cl)cc3)c(O)nn12` [Example 222, 3-(4-Chlorophenyl)-2-hydroxy-5-(1H-indazol-5-yl)pyrazolo[1,5-a]pyrimidin-7(4H)-one], the IC50 was ≤ 10 µM.

For `CCCNC(=O)c1c(N)nn2c(=O)cc(-c3ccc4c(c3)OCCO4)[nH]c12` [Example 226, 2-Amino-5-(2,3-dihydrobenzo[b][1,4]dioxin-6-yl)-7-oxo-N-propyl-4,7-dihydropyrazolo[1,5-a]pyrimidine-3-carboxamide], the IC50 is ≤ 10 µM. For `CCCNC(=O)c1c(O)nn2c(=O)cc(-c3ccc4[nH]nnc4c3)[nH]c12` [Example 228, 5-(1H-Benzo[d][1,2,3]triazol-5-yl)-2-hydroxy-7-oxo-N-propyl-4,7-dihydropyrazolo[1,5-a]pyrimidine-3-carboxamide] the value was ≤ 10 µM; for `Cc1c(-c2cc(=O)n3ncc(-c4ccccn4)c3[nH]2)ccc2c1OCO2` [Example 229, 5-(4-Methylbenzo[d][1,3]dioxol-5-yl)-3-(pyridin-2-yl)pyrazolo[1,5-a]pyrimidin-7(4H)-one], ≤ 10 µM; for `Cc1c(-c2cc(=O)n3nc(N)c(-c4ccccn4)c3[nH]2)ccc2c1OCO2` [Example 230, 2-Amino-5-(4-methylbenzo[d][1,3]dioxol-5-yl)-3-(pyridin-2-yl)pyrazolo[1,5-a]pyrimidin-7(4H)-one], ≤ 10 µM. Under `Cc1c(-c2cc(=O)n3nc(O)c(-c4ccccn4)c3[nH]2)ccc2c1OCO2` [Example 231, 2-Hydroxy-5-(4-methylbenzo[d][1,3]dioxol-5-yl)-3-(pyridin-2-yl)pyrazolo[1,5-a]pyrimidin-7(4H)-one] stands ≤ 10 µM; under `Cc1nn2c(=O)cc(-c3ccc4c(c3C)OCO4)[nH]c2c1-c1ccccn1` [Example 232, 2-Methyl-5-(4-methylbenzo[d][1,3]dioxol-5-yl)-3-(pyridin-2-yl)pyrazolo[1,5-a]pyrimidin-7(4H)-one], ≤ 10 µM; under `COc1c(-c2cc(=O)n3ncc(-c4ccccn4)c3[nH]2)ccc2c1OCO2` [Example 233, 5-(4-Methoxybenzo[d][1,3]dioxol-5-yl)-3-(pyridin-2-yl)pyrazolo[1,5-a]pyrimidin-7(4H)-one], ≤ 10 µM. For `Cc1cc2[nH]nnc2cc1-c1cc(=O)n2ncc(-c3ccccn3)c2[nH]1` [Example 236, 5-(6-Methyl-1H-benzo[d][1,2,3]triazol-5-yl)-3-(pyridin-2-yl)pyrazolo[1,5-a]pyrimidin-7(4H)-one] the value was ≤ 10 µM; for `Cc1cc2[nH]nnc2cc1-c1cc(=O)n2nc(N)c(-c3ccccn3)c2[nH]1` [Example 238, 2-Amino-5-(6-methyl-1H-benzo[d][1,2,3]triazol-5-yl)-3-(pyridin-2-yl)pyrazolo[1,5-a]pyrimidin-7(4H)-one], ≤ 10 µM; for `Cc1cc2[nH]nnc2cc1-c1cc(=O)n2nc(O)c(-c3ccccn3)c2[nH]1` [Example 239, 2-Hydroxy-5-(6-methyl-1H-benzo[d][1,2,3]triazol-5-yl)-3-(pyridin-2-yl)pyrazolo[1,5-a]pyrimidin-7(4H)-one], ≤ 10 µM. As to `Cc1c(-c2cc(=O)n3nc(N)c(-c4ccccn4)c3[nH]2)ccc2[nH]nnc12` [Example 240, 2-Amino-5-(4-methyl-1H-benzo[d][1,2,3]triazol-5-yl)-3-(pyridin-2-yl)pyrazolo[1,5-a]pyrimidin-7(4H)-one], the IC50 is ≤ 10 µM. `Cc1c(-c2cc(=O)n3nc(O)c(-c4ccccn4)c3[nH]2)ccc2[nH]nnc12` [Example 241, 2-Hydroxy-5-(4-methyl-1H-benzo[d][1,2,3]triazol-5-yl)-3-(pyridin-2-yl)pyrazolo[1,5-a]pyrimidin-7(4H)-one]: the 50% inhibitory concentration (IC50) is ≤ 10 µM. Consider `Cc1nn2c(=O)cc(-c3ccc4[nH]nnc4c3C)[nH]c2c1-c1ccccn1` [Example 242, 2-Methyl-5-(4-methyl-1H-benzo[d][1,2,3]triazol-5-yl)-3-(pyridin-2-yl)pyrazolo[1,5-a]pyrimidin-7(4H)-one], for which the IC50 is ≤ 10 µM.
